“And” between values parts separate entries of the source, which are not always exact repeats. Equal entries are not always repeated. Where two headings read alike, the source gives them in different places.
How the values were obtained:
[1] = molecular target: T1, 5-HT2A (Homo sapiens, UniProt P28223); experiment: CEREP off-target panel, agonist radioligand; assay type: binding; details: @10µM
T1 construct: Eurofins Discovery (SafetyScreen44 Panel, Cerep) P270
Experimental: (§1) 5. In vitro ADME/T and Safety Pharmacology
(§2) 5.1. CEREP off-targets assay
(§3) Experiments towards possible off-target effects were conducted following Eurofins Discovery protocol. Detailed information about the assays can be found in: https://www.eurofinsdiscoveryservices.com/catalogmanagement/viewitem/SafetyScreen44- […]
(§4) Table S3. Possible CEREP off-targets. entry off-target QSI 4 QSI 17 Assay
(§5) (%binding (%binding method
(§6) (1 picture or pasted object on this page, not shown here)

[2] = molecular target: T2, 5-HT2B (Homo sapiens, UniProt P41595); experiment: CEREP off-target panel, agonist radioligand; assay type: binding; details: @10µM
T2 construct: Eurofins Discovery (SafetyScreen44 Panel, Cerep) P270
T2 sequence (P41595 whole entry): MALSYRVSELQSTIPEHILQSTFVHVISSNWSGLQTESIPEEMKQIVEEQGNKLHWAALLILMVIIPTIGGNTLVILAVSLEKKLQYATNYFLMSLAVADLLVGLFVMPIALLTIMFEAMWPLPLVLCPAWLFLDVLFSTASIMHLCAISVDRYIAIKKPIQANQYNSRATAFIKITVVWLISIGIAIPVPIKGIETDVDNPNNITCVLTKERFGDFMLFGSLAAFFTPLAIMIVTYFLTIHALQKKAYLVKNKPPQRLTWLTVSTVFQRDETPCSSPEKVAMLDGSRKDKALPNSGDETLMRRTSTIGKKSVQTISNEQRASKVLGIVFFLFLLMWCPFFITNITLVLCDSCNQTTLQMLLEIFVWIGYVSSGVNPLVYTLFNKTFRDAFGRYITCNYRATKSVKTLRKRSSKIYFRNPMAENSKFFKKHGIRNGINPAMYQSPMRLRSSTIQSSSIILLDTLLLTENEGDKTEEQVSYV
Experimental: as §1, §2, §3, §4, §5, §6

[3] = test system: AR; experiment: CEREP off-target panel, agonist radioligand; assay type: binding; details: @10µM
Experimental: as §1, §2, §3, §4, §5, §6

[4] = Cytotoxicity assay in HepG2; assay type: cell-based; details: human, HepG2 cells, read-out: Cytotoxicity, viable cells
Experimental: Hep G2 or HEK293 cells (2 × 10^5 cells per well) were seeded in 24-well, flat-bottomed plates. Culturing of cells, incubations, and OD measurements were performed as described previously with slight modifications.[8] Twenty-four hours after seeding the cells, the incubation was started by the addition of test compound in a final DMSO concentration of
1%. […] At least two independent measurements were performed for each compound.

[5] = test system: eDNA production in PA biofilm; experiment: Inhibition of eDNA production in biofilm; assay type: cell-based; details: Pseudomonas aeruginosa
[6] = molecular target: T3, α1A receptor (Homo sapiens, UniProt P35348); experiment: CEREP off-target panel, antagonist radioligand; assay type: binding; details: @10µM
T3 construct: Eurofins Discovery (SafetyScreen44 Panel, Cerep) P270
T3 sequence (P35348 whole entry): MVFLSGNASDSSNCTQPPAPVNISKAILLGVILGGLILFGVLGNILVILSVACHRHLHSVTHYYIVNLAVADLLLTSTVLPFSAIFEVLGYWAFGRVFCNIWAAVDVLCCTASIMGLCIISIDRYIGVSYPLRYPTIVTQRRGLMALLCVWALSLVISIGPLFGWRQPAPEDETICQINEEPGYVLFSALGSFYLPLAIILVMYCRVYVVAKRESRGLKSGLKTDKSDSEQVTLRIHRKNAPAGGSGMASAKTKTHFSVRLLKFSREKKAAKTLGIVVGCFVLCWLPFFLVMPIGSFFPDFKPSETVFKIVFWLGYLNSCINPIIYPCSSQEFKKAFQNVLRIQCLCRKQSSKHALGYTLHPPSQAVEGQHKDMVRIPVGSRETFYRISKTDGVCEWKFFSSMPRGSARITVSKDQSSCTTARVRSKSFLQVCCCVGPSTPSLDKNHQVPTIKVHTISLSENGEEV
Experimental: as §1, §2, §3, §4, §5, §6

[7] = molecular target: T4, Norepinephrine transporter (Homo sapiens, UniProt P23975); experiment: CEREP off-target panel, antagonist radioligand; assay type: binding; details: @10µM
T4 construct: Eurofins Discovery (SafetyScreen44 Panel, Cerep) P270
T4 sequence (P23975 whole entry): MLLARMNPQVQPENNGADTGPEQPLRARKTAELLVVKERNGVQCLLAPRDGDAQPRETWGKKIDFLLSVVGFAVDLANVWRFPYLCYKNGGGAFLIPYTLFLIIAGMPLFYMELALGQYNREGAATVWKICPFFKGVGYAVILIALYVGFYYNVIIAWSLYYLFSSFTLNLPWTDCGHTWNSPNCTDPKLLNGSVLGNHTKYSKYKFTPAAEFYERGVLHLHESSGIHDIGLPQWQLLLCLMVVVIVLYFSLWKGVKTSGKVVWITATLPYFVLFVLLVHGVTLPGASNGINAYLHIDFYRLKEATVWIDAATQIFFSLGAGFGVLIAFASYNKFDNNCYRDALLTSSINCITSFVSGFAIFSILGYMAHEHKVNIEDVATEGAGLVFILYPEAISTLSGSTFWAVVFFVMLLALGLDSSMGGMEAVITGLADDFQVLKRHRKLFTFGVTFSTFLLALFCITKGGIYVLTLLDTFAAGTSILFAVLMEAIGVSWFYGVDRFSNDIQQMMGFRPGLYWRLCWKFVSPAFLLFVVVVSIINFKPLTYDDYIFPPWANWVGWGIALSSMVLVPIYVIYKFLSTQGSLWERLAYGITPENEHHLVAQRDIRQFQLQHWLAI
Experimental: as §1, §2, §3, §4, §5, §6

[8] = test system: Na+ channel (site 2); experiment: CEREP off-target panel, antagonist radioligand; assay type: binding; details: @10µM
Experimental: as §1, §2, §3, §4, §5, §6

[9] = molecular target: T5, Dopamine transporter (Homo sapiens, UniProt Q01959); experiment: CEREP off-target panel, antagonist radioligand; assay type: binding; details: @10µM
T5 construct: Eurofins Discovery (SafetyScreen44 Panel, Cerep) P270
T5 sequence (Q01959 whole entry): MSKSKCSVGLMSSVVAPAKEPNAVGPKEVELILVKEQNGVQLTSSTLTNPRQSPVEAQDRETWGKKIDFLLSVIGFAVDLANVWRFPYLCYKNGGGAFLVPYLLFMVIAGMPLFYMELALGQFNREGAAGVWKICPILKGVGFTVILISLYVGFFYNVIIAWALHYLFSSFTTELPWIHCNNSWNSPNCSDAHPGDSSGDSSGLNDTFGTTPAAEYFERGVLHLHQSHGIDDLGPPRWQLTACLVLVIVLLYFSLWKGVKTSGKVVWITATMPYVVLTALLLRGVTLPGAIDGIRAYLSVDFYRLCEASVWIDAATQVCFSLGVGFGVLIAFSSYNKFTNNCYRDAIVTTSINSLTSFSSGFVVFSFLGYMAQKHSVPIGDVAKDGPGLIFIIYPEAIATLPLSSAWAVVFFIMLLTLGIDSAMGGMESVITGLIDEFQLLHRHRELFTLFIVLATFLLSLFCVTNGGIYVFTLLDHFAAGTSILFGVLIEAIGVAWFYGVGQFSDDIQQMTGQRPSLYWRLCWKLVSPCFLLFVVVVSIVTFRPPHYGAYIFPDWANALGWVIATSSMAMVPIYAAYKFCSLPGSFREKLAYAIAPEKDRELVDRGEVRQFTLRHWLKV
Experimental: as §1, §2, §3, §4, §5, §6

[10] = test system: Ca2+ channel (L, dihydropyridine site); experiment: CEREP off-target panel, antagonist radioligand; assay type: binding; details: @10µM
Experimental: as §1, §2, §3, §4, §5, §6

[11] = molecular target: T6, β2 receptor (Homo sapiens, UniProt P07550); experiment: CEREP off-target panel, antagonist radioligand; assay type: binding; details: @10µM
T6 construct: Eurofins Discovery (SafetyScreen44 Panel, Cerep) P270
T6 sequence (P07550 whole entry): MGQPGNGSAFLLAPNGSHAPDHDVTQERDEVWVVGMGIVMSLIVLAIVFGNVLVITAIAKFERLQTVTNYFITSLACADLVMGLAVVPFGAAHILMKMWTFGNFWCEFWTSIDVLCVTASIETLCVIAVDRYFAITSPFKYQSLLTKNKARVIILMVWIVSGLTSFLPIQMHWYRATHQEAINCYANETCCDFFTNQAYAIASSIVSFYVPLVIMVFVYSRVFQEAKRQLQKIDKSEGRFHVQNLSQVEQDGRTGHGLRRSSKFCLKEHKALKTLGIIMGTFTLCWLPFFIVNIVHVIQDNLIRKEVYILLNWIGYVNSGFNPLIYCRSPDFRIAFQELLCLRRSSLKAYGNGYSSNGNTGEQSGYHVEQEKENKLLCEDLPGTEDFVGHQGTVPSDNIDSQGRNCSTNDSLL
Experimental: as §1, §2, §3, §4, §5, §6

[12] = Metabolic stability, human liver S9; assay type: in vitro ADME
Experimental: For the evaluation of combined phase I and phase II metabolic stability, the compound (1 μM) was incubated with 1 mg/mL pooled liver S9 fraction from the respective species (Xenotech), […]
2 mM NADPH, 1 mM UDPGA, 10 mM MgCl2, 5 mM GSH and 0.1 mM PAPS at 37 °C for […]
0, 5, 15, 30 or 60 min. The metabolic stability of Testosterone (1 μM) and verapamil (1 μM) […]
were determined in parallel to confirm the enzymatic activity of the S9 fraction. The […]
incubation was stopped by precipitation of S9 enzymes with 2 volumes of cold acetonitrile […]
containing internal standard (750 nM Diphenhydramine). Samples were stored on ice for 10 […]
min and precipitated protein was removed by centrifugation (10 min, 4 °C, 17,000 g).
Concentration of the remaining test compound at the different time points was analyzed by […]
LC-MS/MS (TSQ Quantum Access MAX, Thermo Fisher, Dreieich, Germany) and used to […]
determine half-life (t1/2). Stability of compound 4 in further S9 fractions are summarized in […]
Table S4. Metabolic stability studies in various S9 fractions. […]

[13] = test system: pyocyanin production in PA14 wt; experiment: Pyocyanin assay in PA14 wt; assay type: cell-based; details: Pseudomonas aeruginosa, PA14, read-out: IC50 pyocyanin
Experimental: The pyocyanin inhibitory effect of the synthesized compounds and the compound (4) loaded SqNPs on PA14 wt were investigated by pyocyanin assay as described in previous work.[2,5] Briefly, PA14 wt was grown in PPGAS medium, overnight, at 37 °C, shaking at 200 rpm. The bacterial suspension was then centrifuged at 7.450 g, washed twice and diluted to a final OD600 (absorption at 600 nm) of 0.02 (2∙10^7 CFU/mL) in fresh PPGAS. 1.5 mL of the […]
(1 picture or pasted object on this page, not shown here) […]
culture was distributed in each well of the 24 well-plate. The free synthesized QSI prepared in DMSO, compound (4) loaded SqNPs were supplemented to bacteria-containing wells (1:100 dilutions). PA14 wt treated with either PBS or drug-free SqNPs (200 μg/mL) served as controls. Following 16 h incubation under aerobic conditions, pyocyanin in 900 μL of bacteria culture was extracted with chloroform and re-extracted with 0.2 M HCl. Pyocyanin production level was measured as the absorption at 520 nm, which was normalized to cell growth measured as OD600. 0.2 M HCl served as blank samples. Three independent experiments were conducted in triplicate. Non-linear regression analysis was performed using […]
(4) loaded SqNPs on PA14 wt. The pyocyanin inhibitory efficacy was improved by a factor of […]
It is noted that as reported in our prior
Figure S2. The production of pyocyanin levels compared to control PA14 wide type (wt) of the samples treated with 200 μg/mL drug free SqNPs. Three independent experiments were conducted in triplicate. […]
(also on this page, place not known: ( 4) -containing -free bacteria re -extracted compo und ( 4) (IC 50 nM ) (IC 50 nM ). drug P A14 5,6,7,8 -tetradeutero-2-heptyl-4(1H)-quinolone standa rd -40 -20 0 20 40 60 80 100 120 0.005 0.05 0.5 pyo production inhibition [%] Compound concentration loaded SqNPs [µM] IC50 = 100 ± 0.018 [nM])

[14] = molecular target: T7, PqsR (Pseudomonas aeruginosa, UniProt Q9I4X0); experiment: PqsR β-galactosidase reporter-gene assay in E. coli DH5α; assay type: cell-based
T7 construct: which expresses PqsR and the β-galactosidase LacZ under the control of the pqsA promoter; expressed in transfected cells; host or cells: E. coli DH5α carrying plasmid pEAL08-2
T7 sequence (Q9I4X0 whole entry): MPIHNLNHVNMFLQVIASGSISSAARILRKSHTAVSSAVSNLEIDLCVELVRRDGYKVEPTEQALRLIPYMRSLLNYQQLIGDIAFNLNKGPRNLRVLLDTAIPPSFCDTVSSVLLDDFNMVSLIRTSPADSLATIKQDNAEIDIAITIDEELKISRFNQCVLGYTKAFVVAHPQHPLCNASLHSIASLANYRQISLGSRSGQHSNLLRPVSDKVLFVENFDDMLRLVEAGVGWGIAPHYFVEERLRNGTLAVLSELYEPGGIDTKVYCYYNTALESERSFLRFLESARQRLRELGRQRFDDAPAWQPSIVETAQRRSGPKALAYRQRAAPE
Experimental: 3. Primary Activity Assays
The inverse agonistic/antagonistic activity of potential PqsR ligands was evaluated in a β-galactosidase reporter gene assay in E. coli as previously described.[3] In short, test compounds were co-incubated with E. coli DH5α cells containing the plasmid pEAL08-2,[4] which expresses PqsR and the β-galactosidase LacZ under the control of the pqsA promoter.
The inverse agonistic/antagonistic activity of compounds was measured in the presence of 50 nM PQS. After incubation, galactosidase activity was quantified photometrically and expressed as ratio of controls. The given IC50 values represent the mean of at least two independent experiments using at least eight different concentrations of test compound with n = 4. Non-linear regression analysis was performed using OriginPro 2020. […]

[15] = pooled human liver S9 fraction, Table 2, read-out: Metabolic stability t 1/2 S9 human

T1 sequence (P28223 whole entry): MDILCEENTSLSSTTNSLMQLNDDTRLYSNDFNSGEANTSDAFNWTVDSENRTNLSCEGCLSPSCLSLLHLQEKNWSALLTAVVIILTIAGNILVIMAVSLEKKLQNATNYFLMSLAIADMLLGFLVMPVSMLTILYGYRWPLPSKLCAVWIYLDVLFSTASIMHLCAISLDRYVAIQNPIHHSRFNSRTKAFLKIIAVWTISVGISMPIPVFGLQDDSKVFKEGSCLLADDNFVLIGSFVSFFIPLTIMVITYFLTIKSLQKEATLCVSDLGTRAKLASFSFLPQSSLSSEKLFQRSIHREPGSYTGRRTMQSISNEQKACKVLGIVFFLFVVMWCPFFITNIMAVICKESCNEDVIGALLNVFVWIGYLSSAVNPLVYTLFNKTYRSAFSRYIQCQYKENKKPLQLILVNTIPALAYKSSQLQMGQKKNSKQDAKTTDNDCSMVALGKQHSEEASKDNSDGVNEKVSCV

SMILES	% binding, 5-HT2A [1] [%]	% binding, 5-HT2B [2] [%]	% binding, AR [3] [%]	viability at 48 h, 75 × 10^−6 M ([4]; HepG2, @75 × 10^−6 M) [%]	IC50 [5] [nM]	% binding, α1A receptor [6] [%]	% binding, Norepinephrine transporter [7] [%]	% binding, Na+ channel (site 2) [8] [%]	% binding, Dopamine transporter [9] [%]	% binding, Ca2+ channel (L, dihydropyridine site) [10] [%]	% binding, β2 receptor [11]	half-life at 1 μM [12, 15] [min]	IC50 [13] [nM]	IC50 [14] [nM]	fold higher activity than monosubstituted 11 ([14]; PqsR reporter-gene IC50, versus 11) [fold]	viability at 48 h, 25 × 10^−6 M ([4]; HepG2, @25 × 10^−6 M) [%]	half-life at 1 μM ([12]; pooled liver S9 fraction, Table S4, read-out: t1/2 human liver S9) [min]
COc1ccc(-n2cc(CNc3ccnc(C(F)(F)F)c3)nn2)cc1Cl [Compound 17]	22.02	73.79	57.04	68	1600 ± 1100	55.42	8.58	-27.90	28.91	30.36	85.3% and 85%	42	350	8	10	–	–
FC(F)(F)c1cc(NCc2cn(-c3ccc(Oc4ccccc4)cc3)nn2)ccn1 [Compound 4]	65.15	55.25	-10.10	–	220 ± 50	40.59	82.52	54.62	97.25	78.29	18.03% and 18%	169	199	11	–	55	67.6 ± 9

Reference: article PMC8224453, “A New PqsR Inverse Agonist Potentiates Tobramycin Efficacy to Eradicate Pseudomonas aeruginosa Biofilms” (Advanced Science, 2021)
